# Experimental data reported in paper PMC12751012, “Nanoscale Direct-to-Biology Optimization and Structural Insights into Selective S. aureus TrmD Inhibitors” (Journal of Medicinal Chemistry, 2025).
# Biological target: T1, S. aureus TrmD (Staphylococcus aureus, UniProt Q2FZ43)
# T1 construct: made in house; host or cells: E. coli BL21
# T1 sequence (Q2FZ43 1-245): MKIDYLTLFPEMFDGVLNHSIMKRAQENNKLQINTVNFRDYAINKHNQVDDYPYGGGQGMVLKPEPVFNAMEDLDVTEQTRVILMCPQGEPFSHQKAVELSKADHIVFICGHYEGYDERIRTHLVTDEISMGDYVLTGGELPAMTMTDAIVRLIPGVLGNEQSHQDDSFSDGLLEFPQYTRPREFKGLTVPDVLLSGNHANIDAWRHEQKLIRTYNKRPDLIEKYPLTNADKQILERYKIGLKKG
# Test: nanoSAR direct-to-biology FP displacement screening of crude triazoles
# Assay type: binding
# Details: crude triazole at 1 μM, assuming full conversion; 500 nM TrmD, 10 nM tracer 4
# In short: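 S. aureus TrmD (500 nM) with tracer 4 (10 nM) in Tris/NaCl/MgCl2/glycerol buffer, pH 7.5, was challenged with unpurified triazoles from in situ CuAAC of alkyne 7 with a 320-member azide library.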
row,SMILES,% displaced tracer [%]
1,"C[C@H](N)Cn1cc(-c2c[nH]c3nc[nH]c(=O)c23)nn1 [Compound 03F01, O=C1NC=NC=2NC=C(C=3N=NN(C3)C[C@@H]([NH3+])C)C12]",56

# Same assay, conditions: crude triazole at 1 μM, assuming full conversion; 500 nM TrmD, 10 nM tracer 4; read-out: % displaced tracer
row,SMILES,inhibition at 1 µM [%]
1,"Cc1cc(C)cc(-n2cc(-c3c[nH]c4nc[nH]c(=O)c34)nn2)c1 [Compound 03B05, O=C1NC=NC=2NC=C(C=3N=NN(c4cc(cc(c4)C)C)C3)C12]",24
2,"O=c1[nH]cnc2[nH]cc(-c3cn([C@H]4CC5(CCC5)Oc5ccc(F)cc54)nn3)c12 [Compound 03B06, Fc1cc2c(OC3(C[C@@H]2N4N=NC(C=5C=6C(=O)NC=NC6NC5)=C4)CCC3)cc1]",70
3,"NC(=O)[C@@H](c1ccc(F)cc1)n1cc(-c2c[nH]c3nc[nH]c(=O)c23)nn1 [Compound 03B07, Fc1ccc(cc1)[C@@H](N2N=NC(C=3C=4C(=O)NC=NC4NC3)=C2)C(=O)N]",16
4,"Cc1nc(C)c(Cn2cc(-c3c[nH]c4nc[nH]c(=O)c34)nn2)o1 [Compound 03B08, O=C1NC=NC=2NC=C(C=3N=NN(C3)CC=4OC(=NC4C)C)C12]",50
5,"O=c1[nH]cnc2[nH]cc(-c3cn(-c4ccc(C(F)(F)F)cc4)nn3)c12 [Compound 03B09, FC(F)(F)c1ccc(N2N=NC(C=3C=4C(=O)NC=NC4NC3)=C2)cc1]",15
6,"COC(=O)CCCn1cc(-c2c[nH]c3nc[nH]c(=O)c23)nn1 [Compound 03B10, O=C(OC)CCCN1N=NC(C=2C=3C(=O)NC=NC3NC2)=C1]",58
7,"O=c1[nH]cnc2[nH]cc(-c3cn(CCOCC4CCCC4)nn3)c12 [Compound 03B11, O=C1NC=NC=2NC=C(C=3N=NN(C3)CCOCC4CCCC4)C12]",44
8,"C[C@@H]1CNC[C@H]1n1cc(-c2c[nH]c3nc[nH]c(=O)c23)nn1 [Compound 03B12, O=C1NC=NC=2NC=C(C=3N=NN(C3)[C@H]4[C@@H](C[NH2+]C4)C)C12]",19
9,"O=c1[nH]cnc2[nH]cc(-c3cn(CCP(=O)(O)O)nn3)c12 [Compound 03C01, P([O-])([O-])(=O)CCN1N=NC(C=2C=3C(=O)NC=NC3NC2)=C1]",28
10,"C[C@@H](CN)n1cc(-c2c[nH]c3nc[nH]c(=O)c23)nn1 [Compound 03C02, O=C1NC=NC=2NC=C(C=3N=NN(C3)[C@H](C[NH3+])C)C12]",40
11,"O=c1[nH]cnc2[nH]cc(-c3cn(Cc4ccc5c(c4)OCO5)nn3)c12 [Compound 03C03, O=C1NC=NC=2NC=C(C=3N=NN(C3)Cc4cc5OCOc5cc4)C12]",70
12,"Cc1cc(F)cc(-n2cc(-c3c[nH]c4nc[nH]c(=O)c34)nn2)c1 [Compound 03C04, Fc1cc(N2N=NC(C=3C=4C(=O)NC=NC4NC3)=C2)cc(c1)C]",17
13,"O=c1[nH]cnc2[nH]cc(-c3cn(-c4ccc5c(c4)OCO5)nn3)c12 [Compound 03C05, O=C1NC=NC=2NC=C(C=3N=NN(c4cc5OCOc5cc4)C3)C12]",59
14,"O=c1[nH]cnc2[nH]cc(-c3cn(-c4ccc5c(c4)NCC5)nn3)c12 [Compound 03C06, O=C1NC=NC=2NC=C(C=3N=NN(c4cc5NCCc5cc4)C3)C12]",25
15,"CC(C)(C)OCCCn1cc(-c2c[nH]c3nc[nH]c(=O)c23)nn1 [Compound 03C07, O=C1NC=NC=2NC=C(C=3N=NN(C3)CCCOC(C)(C)C)C12]",42
16,"COC(=O)c1coc(Cn2cc(-c3c[nH]c4nc[nH]c(=O)c34)nn2)n1 [Compound 03C08, O=C(OC)C=1N=C(OC1)CN2N=NC(C=3C=4C(=O)NC=NC4NC3)=C2]",40
17,"O=c1[nH]cnc2[nH]cc(-c3cn(C[C@@H]4CCCN4)nn3)c12 [Compound 03C09, O=C1NC=NC=2NC=C(C=3N=NN(C3)C[C@H]4[NH2+]CCC4)C12]",58
18,"C[C@@H](Cn1cc(-c2c[nH]c3nc[nH]c(=O)c23)nn1)c1ccccn1 [Compound 03C10, O=C1NC=NC=2NC=C(C=3N=NN(C3)C[C@@H](c4ncccc4)C)C12]",63
19,"COCCn1cc(-c2c[nH]c3nc[nH]c(=O)c23)nn1 [Compound 03C11, O=C1NC=NC=2NC=C(C=3N=NN(C3)CCOC)C12]",29
20,"O=c1[nH]cnc2[nH]cc(-c3cn(C[C@H]4CCNC4)nn3)c12 [Compound 03C12, O=C1NC=NC=2NC=C(C=3N=NN(C3)C[C@@H]4C[NH2+]CC4)C12]",74
21,"Cc1ccc([C@@H](O)Cn2cc(-c3c[nH]c4nc[nH]c(=O)c34)nn2)cc1 [Compound 03D01, O=C1NC=NC=2NC=C(C=3N=NN(C3)C[C@H](O)c4ccc(cc4)C)C12]",65
22,"C[C@@H]1C[C@H](n2cc(-c3c[nH]c4nc[nH]c(=O)c34)nn2)c2ccsc2S1(=O)=O [Compound 03D02, S1(=O)(=O)C=2SC=CC2[C@@H](N3N=NC(C=4C=5C(=O)NC=NC5NC4)=C3)C[C@H]1C]",27
23,"O=c1[nH]cnc2[nH]cc(-c3cn(C[C@H](O)Cc4ccccc4)nn3)c12 [Compound 03D03, O=C1NC=NC=2NC=C(C=3N=NN(C3)C[C@H](O)Cc4ccccc4)C12]",39

row,SMILES,inhibition at 1 µM [%]
1,"CCOC(=O)C12CC(Cn3cc(-c4c[nH]c5nc[nH]c(=O)c45)nn3)(C1)OC21CCOCC1 [Compound 03D04, O=C(OCC)C12C3(OC(CN4N=NC(C=5C=6C(=O)NC=NC6NC5)=C4)(C1)C2)CCOCC3]",51
2,"Nc1ccc(-n2cc(-c3c[nH]c4nc[nH]c(=O)c34)nn2)cc1 [Compound 03D05, O=C1NC=NC=2NC=C(C=3N=NN(c4ccc(N)cc4)C3)C12]",2.34
3,"COCC(COC)n1cc(-c2c[nH]c3nc[nH]c(=O)c23)nn1 [Compound 03D06, O=C1NC=NC=2NC=C(C=3N=NN(C3)C(COC)COC)C12]",24
4,"O=c1[nH]cnc2[nH]cc(-c3cn([C@H]4CCNC4)nn3)c12 [Compound 03D07, O=C1NC=NC=2NC=C(C=3N=NN(C3)[C@@H]4C[NH2+]CC4)C12]",27
5,"COC(=O)c1ccc(-n2cc(-c3c[nH]c4nc[nH]c(=O)c34)nn2)cc1 [Compound 03D08, O=C(OC)c1ccc(N2N=NC(C=3C=4C(=O)NC=NC4NC3)=C2)cc1]",11
6,"CCO[C@@H]1CCCC[C@H]1n1cc(-c2c[nH]c3nc[nH]c(=O)c23)nn1 [Compound 03D09, O=C1NC=NC=2NC=C(C=3N=NN(C3)[C@H]4[C@H](OCC)CCCC4)C12]",25
7,"O=c1[nH]cnc2[nH]cc(-c3cn(C[C@H]4COCCO4)nn3)c12 [Compound 03D10, O=C1NC=NC2=C1C(C3=CN(C[C@H]4COCCO4)N=N3)=CN2]",57
8,"O=c1[nH]cnc2[nH]cc(-c3cn(Cc4cccc(Cl)c4)nn3)c12 [Compound 03D11, Clc1cc(ccc1)CN2N=NC(C=3C=4C(=O)NC=NC4NC3)=C2]",75
9,"O=c1[nH]cnc2[nH]cc(-c3cn(C[C@H](O)C(F)(F)F)nn3)c12 [Compound 03D12, FC(F)(F)[C@@H](O)CN1N=NC(C=2C=3C(=O)NC=NC3NC2)=C1]",71
10,"O=c1[nH]cnc2[nH]cc(-c3cn([C@@H]4CCOC4)nn3)c12 [Compound 03E01, O=C1NC=NC=2NC=C(C=3N=NN(C3)[C@H]4COCC4)C12]",27
11,"CN1CC[C@@H](n2cc(-c3c[nH]c4nc[nH]c(=O)c34)nn2)C1=O [Compound 03E02, O=C1NC=NC=2NC=C(C=3N=NN(C3)[C@H]4C(=O)N(CC4)C)C12]",27
12,"CN(C)[C@@H]1CCN(CCn2cc(-c3c[nH]c4nc[nH]c(=O)c34)nn2)C1 [Compound 03E03, O=C1NC=NC=2NC=C(C=3N=NN(C3)CC[N@@H+]4C[C@H]([NH+](C)C)CC4)C12]",40
13,"O=c1[nH]cnc2[nH]cc(-c3cn(Cc4ccc(F)cc4)nn3)c12 [Compound 03E04, Fc1ccc(cc1)CN2N=NC(C=3C=4C(=O)NC=NC4NC3)=C2]",85
14,"CCNCCn1cc(-c2c[nH]c3nc[nH]c(=O)c23)nn1 [Compound 03E05, O=C1NC=NC=2NC=C(C=3N=NN(C3)CC[NH2+]CC)C12]",87
15,"O=c1[nH]cnc2[nH]cc(-c3cn(C[C@@H]4C[C@@H]4C(F)(F)F)nn3)c12 [Compound 03E06, FC(F)(F)[C@@H]1[C@H](CN2N=NC(C=3C=4C(=O)NC=NC4NC3)=C2)C1]",34
16,"N#CC1(Cn2cc(-c3c[nH]c4nc[nH]c(=O)c34)nn2)CCCCC1 [Compound 03E07, O=C1NC=NC=2NC=C(C=3N=NN(C3)CC4(C#N)CCCCC4)C12]",69
17,"O=c1[nH]cnc2[nH]cc(-c3cn(-c4cc(Cl)cc(Cl)c4)nn3)c12 [Compound 03E08, Clc1cc(Cl)cc(N2N=NC(C=3C=4C(=O)NC=NC4NC3)=C2)c1]",23
18,"O=c1[nH]cnc2[nH]cc(-c3cn(CCCN4CCOCC4)nn3)c12 [Compound 03E09, O=C1NC=NC=2NC=C(C=3N=NN(C3)CCC[NH+]4CCOCC4)C12]",66
19,"NCCCn1cc(-c2c[nH]c3nc[nH]c(=O)c23)nn1 [Compound 03E10, O=C1NC=NC=2NC=C(C=3N=NN(C3)CCC[NH3+])C12]",68
20,"O=c1[nH]cnc2[nH]cc(-c3cn(CC4CCCC4)nn3)c12 [Compound 03E11, O=C1NC=NC=2NC=C(C=3N=NN(C3)CC4CCCC4)C12]",39
21,"CN(C)c1cccc(OCCCn2cc(-c3c[nH]c4nc[nH]c(=O)c34)nn2)c1 [Compound 03E12, O=C1NC=NC=2NC=C(C=3N=NN(C3)CCCOc4cc(N(C)C)ccc4)C12]",80
22,"Cc1cc(Cn2cc(-c3c[nH]c4nc[nH]c(=O)c34)nn2)no1 [Compound 03F02, O=C1NC=NC=2NC=C(C=3N=NN(C3)CC4=NOC(=C4)C)C12]",35
23,"COC(=O)c1cc(-n2cc(-c3c[nH]c4nc[nH]c(=O)c34)nn2)ccn1 [Compound 03F03, O=C(OC)c1nccc(N2N=NC(C=3C=4C(=O)NC=NC4NC3)=C2)c1]",10
